ChEMBL document CHEMBL1949529, “Substrate specificity of acetoxy derivatives of coumarins and quinolones towards Calreticulin mediated transacetylation: investigations on antiplatelet function” (Bioorg Med Chem, 2012)
Calls of active or inactive are those of the source. No cut-off for these calls is given here.

Key:
[1] = Inhibition of platelet CRTAase assessed as inhibition of platelet aggregation at 50 uM by spectrophotometry
Rattus norvegicus [2] = experiment: Inhibition of TxB2 production in arachidonic acid-stimulated blood of Sprague-Dawley rat assessed per mg of protein at 160.2 umol/kg, po, measured after 24 hrs by ELISA (reference value: 85.4 pg/mg of protein); type: functional
Rattus norvegicus [3] = experiment: Inhibition of LPS-induced tissue factor expression in Sprague-Dawley rat PBMC at 160.2 umol/kg, po for 5 days by ELISA relative to control; type: functional
Rattus norvegicus [4] = experiment: Inhibition of arachidonic acid-induced aggregation in Sprague-Dawley rat blood at 50.6 umol/kg, po treated for 24 hrs before arachidonic acid challenge by aggregometry method; type: functional
PBMC = experiment: Inhibition of LPS-induced iNOS expression in Sprague-Dawley rat PBMC at 160.2 umol/kg, po for 5 days before LPS challenge by Western blot analysis; type: functional, organism-based
Rattus norvegicus [5] = experiment: Inhibition of ADP-induced platelet aggregation in Sprague-Dawley rat blood at 125.3 umol/kg, po treated for 24 hrs before ADP challenge by aggregometry method; type: functional
[6] = (§1) Antiplatelet activity in human platelet rich plasma assessed as inhibition of arachidonic acid-induced aggregation preincubated for 10 mins before arachidonic acid challenge by aggregometry method; type: functional, cell-free
Rattus norvegicus [7] = experiment: Inhibition of COX1 activity in TMPD/arachidonic acid-stimulated blood of Sprague-Dawley rat at 160.2 umol/kg, po after 24 hrs by ELISA relative to control; type: functional
Platelet [8] = experiment: Enhancement of nitric oxide production in human platelet rich plasma at 100 uM preincubated for 10 mins before ADP addition by DCFH-DA-based flow cytometry; type: functional, cell-free
Platelet [9] = experiment: (§2) Antiplatelet activity in human platelet rich plasma assessed as inhibition of ADP-induced aggregation compound preincubated for 10 mins before ADP addition by aggregometry method; type: functional, cell-free
[10] = as §2; type: functional, cell-free
Rattus norvegicus [11] = experiment: Antiplatelet activity in arachidonic acid-induced platelet aggregation po dosed Sprague-Dawley rat blood compound treated for 24 hrs before ADP challenge by aggregometry method; type: functional, organism-based
Platelet [12] = experiment: as §1; type: functional, cell-free
Rattus norvegicus [13] = experiment: Antiplatelet activity in ADP-induced platelet aggregation po dosed Sprague-Dawley rat blood compound treated for 24 hrs before ADP challenge by aggregometry method; type: functional, organism-based

In the case of `CCCCCCCCCCc1c(C)c2ccc(NC(C)=O)cc2oc1=O`, the inhibition [1] is reported as “Active”.
For `CCc1c(C)c2cc(C(C)=O)c(OC(C)=O)cc2oc1=O`, the inhibition [1] was “inactive”.
With `CCCCCCc1c(C)c2ccc(NC(C)=O)cc2oc1=O` the inhibition [1] was “Active”.
With `CCCCCCCCCCc1c(C)c2cc(OC(C)=O)ccc2[nH]c1=O` the inhibition [1] was “Active”.
In the case of `CC(=O)Oc1ccc2c(C(F)(F)F)cc(=O)[nH]c2c1`, the inhibition [1] is reported as “Active”.
For `CC(=O)Oc1cc2oc(=O)cc(C)c2cc1C(C)=O`, the inhibition [1] was “inactive”.
In the case of `CC(=O)Nc1ccc2c(C(F)(F)F)cc(=O)oc2c1`, the inhibition [1] is reported as “Active”.
In the case of `CC(=O)Oc1ccccc1C(=O)O` [ASPIRIN], the “fold change (FC)” value (Rattus norvegicus [2]) is reported as 0.42, the “fold change (FC)” value (Rattus norvegicus [3]) is reported as 4.95 and the inhibition in vivo at 50.6 µmol/kg (Rattus norvegicus [4]) is reported as 55%. For the same compound, the inhibition (PBMC) was “inactive”, the inhibition in vivo at 125.3 µmol/kg (Rattus norvegicus [5]) was 52% and the IC50 [6] was 80 µM. The inhibition (Rattus norvegicus [7]) was “Active”.
In the case of `CCCCc1c(C)c2cc(OC(C)=O)ccc2[nH]c1=O`, the inhibition [1] is reported as “Active”.
In the case of `CCc1c(C)c2ccc(NC(C)=O)cc2[nH]c1=O`, the inhibition [1] is reported as “Active”.
In the case of `CC(=O)Nc1ccc2c(C)cc(=O)oc2c1`, the “fold change (FC)” value (Rattus norvegicus [2]) is reported as 0.39, the “fold change (FC)” value (Rattus norvegicus [3]) is reported as 1.93 and the Activity (Platelet [8]) is reported as “Active”. For the same compound, the inhibition (Platelet [9]) was “Dose-dependent effect”, the IC50 [10] was 145 µM and the Activity (Rattus norvegicus [11]) was “Dose-dependent effect”. For the same compound, the inhibition (PBMC) was “Active”, the inhibition [1] was “Active” and the inhibition (Platelet [12]) was “Dose-dependent effect”. For the same compound, the IC50 [6] was 77 µM, the Activity (Rattus norvegicus [13]) was “Dose-dependent effect” and the IC50 (Rattus norvegicus [13]) was 125.3 µmol/kg. For the same compound, the “fold change (FC)” value (Rattus norvegicus [7]) was 3.34.
In the case of `CCc1c(C)c2ccc(NC(C)=O)cc2oc1=O`, the inhibition [1] is reported as “Active”.
For `CC(=O)Oc1ccc2[nH]c(=O)cc(C(F)(F)F)c2c1`, the inhibition [1] was “Active”.
With `CC(=O)Nc1ccc2c(C(F)(F)F)cc(=O)[nH]c2c1` the inhibition [1] was “Active”.
In the case of `CCc1c(C)c2ccc(OC(C)=O)c(C(C)=O)c2oc1=O`, the inhibition [1] is reported as “inactive”.
In the case of `CC(=O)Nc1ccc2c(C)cc(=O)[nH]c2c1`, the inhibition [1] is reported as “Active”.
For `CCCCCCCCc1c(C)c2cc(OC(C)=O)ccc2[nH]c1=O`, the inhibition [1] was “Active”.
In the case of `CC(=O)Oc1ccc2c(C)cc(=O)oc2c1C(C)=O`, the inhibition [1] is reported as “inactive”.
